Results: patent publication US20230053540A1, “TREATMENT OF LIVER INJURY” (Massachusetts Institute of Technology, priority 2019, published 2023)

System: hepatocytes
Experiment: Seq-Well scRNA-Seq of hepatocytes after APAP overdose (signature scores, DEG vs untreated)
Type: in vivo, mouse

SMILES: CC(=O)Nc1ccc(O)cc1 [APAP, acetaminophen]
- S100a9 pct.1 (A6): 0.399
- Saa4 pct.1 (A6): 0.437
- Sat1 pct.1 (A6): 0.47
- Scp2 pct.1 (A6): 0.866
- Sdc4 pct.1 (A6): 0.909
- Sec1412 pct.1 (A6): 0.484
- Selenbp2 pct.1 (A6): 0.609
- Serpina1a pct.1 (A6): 0.914
- Serpina3m pct.1 (A6): 0.85
- Serpina3n pct.1 (A6): 0.747
- Slc16a6 pct.1 (A6): 0.47
- Slc22a1 pct.1 (A6): 0.36
- Slc25a47 pct.1 (A6): 0.869
- Slc39a14 pct.1 (A6): 0.678
- Sod1 pct.1 (A6): 0.931
- Sqstm1 pct.1 (A6): 0.859
- Srgn pct.1 (A6): 0.284
- Srxn1 pct.1 (A6): 0.821
- St3gal1 pct.1 (A6): 0.473
- St3gal5 pct.1 (A6): 0.706
- Stat3 pct.1 (A6): 0.604
- Stk40 pct.1 (A6): 0.382
- Tiparp pct.1 (A6): 0.346
- Tmem205 pct.1 (A6): 0.695
- Tmsb4x pct.1 (A6): 0.332
- Tnfrsf1a pct.1 (A6): 0.508
- Tnfrsf12a pct.1 (A6): 0.623
- Tra2a pct.1 (A6): 0.337
- Trp53inp1 pct.1 (A6): 0.637
- Ttc36 pct.1 (A6): 0.768
- Ttr pct.1 (A6): 0.993
- Tubb2a pct.1 (A6): 0.618
- Tubb6 pct.1 (A6): 0.368
- Txnrd1 pct.1 (A6): 0.838
- Tyrobp pct.1 (A6): 0.189
- Ubc pct.1 (A6): 0.573
- Ugdh pct.1 (A6): 0.721
- Ugt2b5 pct.1 (A6): 0.847
- Ugt2b36 pct.1 (A6): 0.745
- Uox pct.1 (A6): 0.905
- Upp2 pct.1 (A6): 0.274
- Uqcr11 pct.1 (A6): 0.606
- Urah pct.1 (A6): 0.525
- Wbp1l pct.1 (A6): 0.697
- Xbp1 pct.1 (A6): 0.692
- Ywhag pct.1 (A6): 0.518
- mmu-mir-6240 pct.1 (A6): 0.413
- mt-Co2 pct.1 (A6): 0.2
- mt-Nd1 pct.1 (A6): 0.983
- mt-Nd4 pct.1 (A6): 0.964
- n-R5-8s1 pct.1 (A6): 0.308
- 2-Mar avg_logFC (A6 vs UT): −0.5599
- 0610005C13Rik avg_logFC (A6 vs UT): −0.4251
- 0610005C13Rik pct.1 (A6 vs UT): 0.427
- 0610007P14Rik A6logFC (A6 vs UT): −0.257
- 1110001J03Rik avg_logFC (A6 vs UT): −0.4328
- 1110001J03Rik pct.1 (A6 vs UT): 0.215
- 1110058L19Rik A6logFC (A6 vs UT): −0.2581
- 1500011K16Rik avg_logFC (A6 vs UT): −0.3296
- 1500011K16Rik pct.1 (A6 vs UT): 0.095
- 1600014C10Rik avg_logFC (A6 vs UT): −0.4982
- 1600014C10Rik pct.1 (A6 vs UT): 0.167
- 1700017B05Rik avg_logFC (A6 vs UT): 0.3307
- 1700017B05Rik pct.1 (A6 vs UT): 0.255
- 2010003K11Rik avg_logFC (A6 vs UT): 0.5884
- 2410015M20Rik avg_logFC (A6 vs UT): −0.4021
- 2410015M20Rik pct.1 (A6 vs UT): 0.344
- 2810007J24Rik avg_logFC (A6 vs UT): −0.9143
- 2810428I15Rik avg_logFC (A6 vs UT): −0.2631
- 2810428I15Rik pct.1 (A6 vs UT): 0.2
- 4931406C07Rik A6logFC (A6 vs UT): −0.2544
- 4931406C07Rik avg_logFC (A6 vs UT): −0.2544
- 4931406C07Rik pct.1 (A6 vs UT): 0.616
- 4932438A13Rik A6logFC (A6 vs UT): 0.2879
- 4932438A13Rik avg_logFC (A6 vs UT): 0.2879
- 4932438A13Rik pct.1 (A6 vs UT): 0.329
- 8430408G22Rik avg_logFC (A6 vs UT): −0.5021
- 2810428115Rik A6logFC (A6 vs UT): −0.2631
- Aadac avg_logFC (A6 vs UT): −0.62
- Aadat A6logFC (A6 vs UT): −0.3186
- Aass avg_logFC (A6 vs UT): 0.4775
- Abca1 avg_logFC (A6 vs UT): 0.7245
- Abcb11 A6logFC (A6 vs UT): −0.2618
- Abcb11 avg_logFC (A6 vs UT): −0.2618
- Abcb11 pct.1 (A6 vs UT): 0.618
- Abcc2 A6logFC (A6 vs UT): 0.2897
- Abcd3 A6logFC (A6 vs UT): −0.2718
- Abce1 A6logFC (A6 vs UT): 0.28
- Abce1 avg_logFC (A6 vs UT): 0.28
- Abce1 pct.1 (A6 vs UT): 0.437
- Abcf1 A6logFC (A6 vs UT): 0.3032
- Abcf1 avg_logFC (A6 vs UT): 0.3032
- Abcf1 pct.1 (A6 vs UT): 0.458
- Abcg2 A6logFC (A6 vs UT): −0.2809
- Abcg2 avg_logFC (A6 vs UT): −0.2809
- Abcg2 pct.1 (A6 vs UT): 0.294
- Abhd2 avg_logFC (A6 vs UT): 0.4844
- Acaa1a A6logFC (A6 vs UT): −0.3018
- Acaa1a avg_logFC (A6 vs UT): −0.3018
- Acaa1a pct.1 (A6 vs UT): 0.475
- Acaa1b avg_logFC (A6 vs UT): −0.7328
- Acads A6logFC (A6 vs UT): −0.3242
- Acat3 A6logFC (A6 vs UT): −0.3115
- Acat3 avg_logFC (A6 vs UT): −0.3115
- Acat3 pct.1 (A6 vs UT): 0.427
- Acot13 A6logFC (A6 vs UT): −0.2886
- Acsl1 avg_logFC (A6 vs UT): −0.3434
- Acsl1 pct.1 (A6 vs UT): 0.752
- Acsl4 avg_logFC (A6 vs UT): 0.2985
- Acsl4 pct.1 (A6 vs UT): 0.427
- Acsm1 avg_logFC (A6 vs UT): −0.3692
- Acsm1 pct.1 (A6 vs UT): 0.527
- Acsm5 A6logFC (A6 vs UT): −0.2614
- Acsm5 avg_logFC (A6 vs UT): −0.2614
- Acsm5 pct.1 (A6 vs UT): 0.236
- Actr3 A6logFC (A6 vs UT): 0.276
- Actr3 avg_logFC (A6 vs UT): 0.276
- Actr3 pct.1 (A6 vs UT): 0.36
- Acy3 avg_logFC (A6 vs UT): −0.3137
- Acy3 pct.1 (A6 vs UT): 0.131
- Adamts1 avg_logFC (A6 vs UT): 0.2826
- Adamts1 pct.1 (A6 vs UT): 0.2
- Adck3 avg_logFC (A6 vs UT): −0.8761
- Adh1 avg_logFC (A6 vs UT): −1.255
- Adh4 avg_logFC (A6 vs UT): −0.5269
- Adh5 avg_logFC (A6 vs UT): −0.4914
- Adh5 pct.1 (A6 vs UT): 0.649
- Adipor2 avg_logFC (A6 vs UT): −0.4738
- Adipor2 pct.1 (A6 vs UT): 0.578
- Aes A6logFC (A6 vs UT): −0.2642
- Aes avg_logFC (A6 vs UT): −0.2642
- Aes pct.1 (A6 vs UT): 0.535
- Aff4 avg_logFC (A6 vs UT): 0.6163
- Aff4 pct.1 (A6 vs UT): 0.537
- Agmat avg_logFC (A6 vs UT): −0.4718
- Agmat pct.1 (A6 vs UT): 0.339
- Agpat2 A6logFC (A6 vs UT): −0.2982
- Agpat9 avg_logFC (A6 vs UT): 0.327
- Agxt A6logFC (A6 vs UT): −0.2584
- Agxt avg_logFC (A6 vs UT): −0.2584
- Agxt pct.1 (A6 vs UT): 0.601
- Akap13 avg_logFC (A6 vs UT): 0.4953
- Akap13 pct.1 (A6 vs UT): 0.406
- Akr1c6 avg_logFC (A6 vs UT): −1.586
- Akr1c14 avg_logFC (A6 vs UT): −0.5186
- Akr1c14 pct.1 (A6 vs UT): 0.413
- Akr1c20 avg_logFC (A6 vs UT): −0.5542
- Akr1d1 avg_logFC (A6 vs UT): −0.2789
- Akr1d1 pct.1 (A6 vs UT): 0.332
- Akr1e1 A6logFC (A6 vs UT): −0.2582
- Alad avg_logFC (A6 vs UT): −0.4206
- Alad pct.1 (A6 vs UT): 0.286
- Alb avg_logFC (A6 vs UT): 0.4203
- Alcam A6logFC (A6 vs UT): 0.3238
- Alcam avg_logFC (A6 vs UT): 0.3238
- Alcam pct.1 (A6 vs UT): 0.396
- Aldh1a1 avg_logFC (A6 vs UT): −0.4788
- Aldh3a2 avg_logFC (A6 vs UT): −0.8342
- Aldh4a1 A6logFC (A6 vs UT): −0.2907
- Aldh4a1 avg_logFC (A6 vs UT): −0.2907
- Aldh4a1 pct.1 (A6 vs UT): 0.425
- Aldh8a1 avg_logFC (A6 vs UT): −0.6837
- Aldob avg_logFC (A6 vs UT): 0.3153
- Aldob pct.1 (A6 vs UT): 0.998
- Amacr avg_logFC (A6 vs UT): −0.4136
- Amacr pct.1 (A6 vs UT): 0.294
- Anapc13 A6logFC (A6 vs UT): −0.3642
- Ang avg_logFC (A6 vs UT): −0.6629
- Anxa5 A6logFC (A6 vs UT): 0.3654
- Apoa2 avg_logFC (A6 vs UT): −0.5428
- Apoa4 avg_logFC (A6 vs UT): 1.368
- Apob avg_logFC (A6 vs UT): 0.5802
- Apobec1 avg_logFC (A6 vs UT): 0.3051
- Apobec1 pct.1 (A6 vs UT): 0.239
- Apoc1 avg_logFC (A6 vs UT): −0.8713
- Apoc3 avg_logFC (A6 vs UT): −0.7688
- Apoe avg_logFC (A6 vs UT): −0.369
- Apof A6logFC (A6 vs UT): −0.2522
- Apof avg_logFC (A6 vs UT): −0.2522
- Apof pct.1 (A6 vs UT): 0.759
- Apoh avg_logFC (A6 vs UT): −0.2623
- Apoh pct.1 (A6 vs UT): 0.924
- Apol7a avg_logFC (A6 vs UT): −0.4923
- App avg_logFC (A6 vs UT): 0.3618
- App pct.1 (A6 vs UT): 0.315
- Aqp9 A6logFC (A6 vs UT): −0.3109
- Arg1 avg_logFC (A6 vs UT): 0.3179
- Arg1 pct.1 (A6 vs UT): 0.983
- Arhgap5 avg_logFC (A6 vs UT): 0.264
- Arhgap5 pct.1 (A6 vs UT): 0.506
- Arhgdia A6logFC (A6 vs UT): 0.2563
- Arhgdia avg_logFC (A6 vs UT): 0.2563
- Arhgdia pct.1 (A6 vs UT): 0.317
- Arhgef12 avg_logFC (A6 vs UT): 0.5908
- Arl4d avg_logFC (A6 vs UT): −0.5072
- Arpc1b A6logFC (A6 vs UT): 0.2597
- Arpc1b avg_logFC (A6 vs UT): 0.2597
- Arpc1b pct.1 (A6 vs UT): 0.263
- Asgr1 avg_logFC (A6 vs UT): −0.3857
- Asgr1 pct.1 (A6 vs UT): 0.656
- Ash1l avg_logFC (A6 vs UT): 0.2657
- Ash1l pct.1 (A6 vs UT): 0.301
